Measurements reported in ChEMBL document CHEMBL1671624, “Efficacy of quinoxaline-2-carboxylate 1,4-di-N-oxide derivatives in experimental tuberculosis” (Antimicrob Agents Chemother, 2008).
≈ marks a conversion by molar mass, not a printed value.

Legend:
[1] = system: Mycobacterium tuberculosis; experiment: Antibacterial activity against Mycobacterium tuberculosis by microplate Alamar Blue assay; assay type: functional
[2] = Selectivity index, ratio of EC50 for african green monkey Vero cells to MIC for Mycobacterium tuberculosis; assay type: functional
[3] = system: Mycobacterium tuberculosis; experiment: Ratio of EC50 to MIC for Mycobacterium tuberculosis; assay type: functional
[4] = system: Mycobacterium tuberculosis; experiment: Antibacterial activity against Mycobacterium tuberculosis H37Rv by microplate Alamar Blue assay; assay type: functional
[5] = system: Mycobacterium tuberculosis; experiment: Antibacterial activity against p-aminosalicylic acid-resistant Mycobacterium tuberculosis by microplate Alamar Blue assay; assay type: functional
Mus musculus [6] = experiment: Toxicity in C57BL/6 mouse assessed as acute adverse effects upto 1000 mg/kg, po; assay type: organism-based; parameters: dose 1000 mg/kg, route oral; conditions: in vivo
Mus musculus [7] = experiment: Toxicity in C57BL/6 mouse assessed as acute reactions upto 1000 mg/kg, po; assay type: organism-based; parameters: dose 1000 mg/kg, route oral; conditions: in vivo
[8] = system: Mycobacterium tuberculosis; experiment: Antibacterial activity against Mycobacterium tuberculosis Erdman infected in gamma interferon gene knockout C57BL/6 mouse assessed as bacterial load in lung at 300 mg/kg, po administered 18 days postinfection for 9 days measured on day 24 (Rvb= 4.47+/-0.12 log CFU); assay type: functional
[9] = system: Mycobacterium tuberculosis; experiment: Antibacterial activity against Mycobacterium tuberculosis Erdman infected in gamma interferon gene knockout C57BL/6 mouse assessed as bacterial load in spleen at 300 mg/kg, po administered 18 days postinfection for 9 days measured on day 24 (Rvb= 6.57+/-0.17 log CFU); assay type: functional
[10] = system: Mycobacterium tuberculosis; experiment: Antimicrobial activity against Mycobacterium tuberculosis Erdman by microplate Alamar Blue assay; assay type: functional
[11] = system: Mycobacterium tuberculosis; experiment: Antibacterial activity against Mycobacterium tuberculosis Erdman infected in gamma interferon gene knockout C57BL/6 mouse assessed as log reduction in bacterial load in spleen at 100 mg/kg, po administered 18 days postinfection for 9 days measured on day 24 relative to control; assay type: functional
[12] = system: Mycobacterium tuberculosis; experiment: Antibacterial activity against Mycobacterium tuberculosis Erdman infected in gamma interferon gene knockout C57BL/6 mouse assessed as log reduction in bacterial load in lung at 300 mg/kg, po administered 18 days postinfection for 9 days measured on day 24 relative to control; assay type: functional
[13] = system: Mycobacterium tuberculosis; experiment: Antibacterial activity against Mycobacterium tuberculosis Erdman infected in gamma interferon gene knockout C57BL/6 mouse assessed as log reduction in bacterial load in spleen at 300 mg/kg, po administered 18 days postinfection for 9 days measured on day 24 relative to control; assay type: functional
Mus musculus [14] = experiment: Toxicity in gamma interferon gene knockout C57BL/6 mouse infected with Mycobacterium tuberculosis Erdman assessed as lethargic at 300 mg/kg, po administered 18 days postinfection for 9 days; assay type: organism-based; parameters: dose 300 mg/kg, route oral; conditions: in vivo
Mus musculus [15] = experiment: Toxicity in gamma interferon gene knockout C57BL/6 mouse infected with Mycobacterium tuberculosis Erdman assessed as with a hunched posture at 300 mg/kg, po administered 18 days postinfection for 9 days; assay type: organism-based; parameters: dose 300 mg/kg, route oral; conditions: in vivo
Blood [16] = experiment: Drug level in C57BL/6 mouse blood at 25 mg/kg, po; assay type: ADME, organism-based; parameters: dose 25 mg/kg, route oral; conditions: in vivo
Blood [17] = experiment: Drug level in C57BL/6 mouse blood at 100 mg/kg, po; assay type: ADME, organism-based; parameters: dose 100 mg/kg, route oral; conditions: in vivo
Blood [18] = experiment: Drug level in C57BL/6 mouse blood at 300 mg/kg, po; assay type: ADME, organism-based; parameters: dose 300 mg/kg, route oral; conditions: in vivo
[19] = Terminal half life in C57BL/6 mouse; assay type: ADME, organism-based; conditions: in vivo, read-out: beta t1/2 (converted)
[20] = system: Mycobacterium tuberculosis; experiment: Antibacterial activity against Mycobacterium tuberculosis H37Rv under aerobic conditions; assay type: functional
[21] = system: Mycobacterium tuberculosis; experiment: Antibacterial activity against Mycobacterium tuberculosis H37Rv under anaerobic conditions by luciferase based low oxygen recovery assay; assay type: functional
[22] = system: Mycobacterium tuberculosis; experiment: Antibacterial activity against Mycobacterium tuberculosis H37Rv assessed as compound concentration required for 99.9% bacterial killing by microplate Alamar Blue assay; assay type: functional
[23] = system: Mycobacterium tuberculosis; experiment: Ratio of […] for Mycobacterium tuberculosis H37Rv; assay type: functional
[24] = Cmax in C57BL/6 mouse serum after 15 to 30 mins at 100 to 200 mg/kg, po; assay type: ADME, organism-based; parameters: dose 100-200 mg/kg, route oral
[25] = system: Mycobacterium tuberculosis; experiment: Antibacterial activity against Mycobacterium tuberculosis Erdman infected in gamma interferon gene knockout C57BL/6 mouse assessed as log reduction in bacterial load in lung at 25 mg/kg, po administered 18 days postinfection for 9 days measured on day 24 relative to control; assay type: functional
[26] = system: Mycobacterium tuberculosis; experiment: Antibacterial activity against Mycobacterium tuberculosis Erdman infected in gamma interferon gene knockout C57BL/6 mouse assessed as log reduction in bacterial load in spleen at 25 mg/kg, po administered 18 days postinfection for 9 days measured on day 24 relative to control; assay type: functional
[27] = system: Mycobacterium tuberculosis; experiment: Antibacterial activity against Mycobacterium tuberculosis Erdman infected in gamma interferon gene knockout C57BL/6 mouse assessed as log reduction in bacterial load in lung at 100 mg/kg, po administered 18 days postinfection for 9 days measured on day 24 relative to control; assay type: functional
[28] = system: Mycobacterium tuberculosis; experiment: Antibacterial activity against Mycobacterium tuberculosis Erdman infected in gamma interferon gene knockout C57BL/6 mouse assessed as bacterial load in lung at 25 mg/kg, po administered 18 days postinfection for 9 days measured on day 24 (Rvb= 4.47+/-0.12 log CFU); assay type: functional
[29] = system: Mycobacterium tuberculosis; experiment: Antibacterial activity against Mycobacterium tuberculosis Erdman infected in gamma interferon gene knockout C57BL/6 mouse assessed as bacterial load in spleen at 25 mg/kg, po administered 18 days postinfection for 9 days measured on day 24 (Rvb= 6.57+/-0.17 log CFU); assay type: functional

| SMILES | MIC [1] [µg/mL] | Selectivity Index [2] | Ratio [3] | MIC [4] [µg/mL] | MIC [5] [µg/mL] | Activity (Mus musculus [6]) | Activity (Mus musculus [7]) | log10cfu [8] | log10cfu [9] | MIC [10] [µg/mL] | also measured |
| --- | --- | --- | --- | --- | --- | --- | --- | --- | --- | --- | --- |
| CCOC(=O)c1c(C)[n+]([O-])c2cc(C)c(C)cc2[n+]1[O-] | 6.25 (≈ 22.6 µM) | >10 | 0.46 | ≤ 3.13 |  |  |  |  |  |  |  |
| CCOC(=O)c1c(C)[n+]([O-])c2ccc(C)cc2[n+]1[O-] | 1.56 (≈ 5.95 µM) | >40.06 | 1.4 | 3.13 (≈ 11.9 µM) | 3.13 (≈ 11.9 µM) |  |  |  |  |  |  |
| CCOC(=O)c1c(C)[n+]([O-])c2ccccc2[n+]1[O-] | 1.56 (≈ 6.28 µM) | 30.13 | 0.56 | 1.56 (≈ 6.28 µM) |  |  |  |  |  |  |  |
| CCOC(=O)c1c(C)[n+]([O-])c2cc(Cl)c(Cl)cc2[n+]1[O-] | 0.2 (≈ 0.631 µM) | >20 | >3.15 | 0.2 (≈ 0.631 µM) |  | Non-toxic | Non-toxic | 7.64 | 6.75 | 0.39 (≈ 1.23 µM) |  |
| COCCOC(=O)c1c(C)[n+]([O-])c2cc(Cl)c(Cl)cc2[n+]1[O-] | 0.39 (≈ 1.12 µM) | 11.54 | >4 | ≤ 0.2 | 0.78 (≈ 2.25 µM) | Non-toxic | Non-toxic | 8.73 | 7.18 | 0.39 (≈ 1.12 µM) |  |
| Cc1ccc2c(c1)[n+]([O-])c(C(=O)OCc1ccccc1)c(C)[n+]2[O-] | 0.39 (≈ 1.2 µM) | 143.7 | 2.9 | 0.39 (≈ 1.2 µM) | 0.78 (≈ 2.4 µM) | Non-toxic | Non-toxic | 7.17 | 6.63 | 0.78 (≈ 2.4 µM) |  |
| Cc1c(C(=O)OCc2ccccc2)[n+]([O-])c2ccccc2[n+]1[O-] | 0.1 (≈ 0.322 µM) | 470 | 1.5 | 0.2 (≈ 0.645 µM) | 0.2 (≈ 0.645 µM) | Non-toxic | Non-toxic | 7.41 | 6.96 | 0.1 (≈ 0.322 µM) |  |
| Cc1c(C(=O)OCc2ccccc2)[n+]([O-])c2cc(Cl)c(Cl)cc2[n+]1[O-] | 0.2 (≈ 0.527 µM) | 29 | 14.35 | 0.39 (≈ 1.03 µM) |  | Non-toxic | Non-toxic | 8.07 | 7.17 | 0.1 (≈ 0.264 µM) |  |
| COC(=O)c1c(C)[n+]([O-])c2ccc(C)cc2[n+]1[O-] | 1.56 (≈ 6.28 µM) | >40.06 | 1.24 | 3.13 (≈ 12.6 µM) | 3.13 (≈ 12.6 µM) |  |  |  |  |  |  |
| COC(=O)c1c(C)[n+]([O-])c2cc(C)c(C)cc2[n+]1[O-] | 3.13 (≈ 11.9 µM) | >20 | 0.52 | 3.13 (≈ 11.9 µM) | 3.13 (≈ 11.9 µM) |  |  |  |  |  |  |
| CCOC(=O)c1c(C)[n+]([O-])c2ccc(Cl)cc2[n+]1[O-] | 0.2 (≈ 0.708 µM) | >50 | 2.3 | 0.2 (≈ 0.708 µM) |  | Non-toxic | Non-toxic | 4.55 | 3.95 | 0.78 (≈ 2.76 µM) | log10cfu [11]: 2.72; log10cfu [12]: 5.58; log10cfu [13]: 5.51; Activity (Mus musculus [14]): Toxic; Activity (Mus musculus [15]): Toxic; Drug uptake (Blood [16]): 3 µg/mL; Drug uptake (Blood [17]): 6 µg/mL; Drug uptake (Blood [18]): 9 µg/mL; half-life [19]: 4 h; MIC [20]: 0.24 µg/mL (≈ 0.849 µM); MIC [21]: 0.42 µg/mL (≈ 1.49 µM); MBC [22]: 2.5 µg/mL (≈ 8.84 µM); Ratio [23]: 4.2; Cmax [24]: 5000 ng/mL; log10cfu [25]: 0.99; log10cfu [26]: 1.61; log10cfu [27]: 2.03 |
| Cc1c(C(=O)OCc2ccccc2)[n+]([O-])c2cc(Cl)ccc2[n+]1[O-] | 0.1 (≈ 0.29 µM) | 76.9 | 0.01 |  |  | Non-toxic | Non-toxic | 7.21 | 6.62 | 0.1 (≈ 0.29 µM) |  |
| NNC(=O)c1ccncc1 [ISONIAZID] |  |  |  |  |  |  |  |  |  |  | log10cfu [28]: 4.47; log10cfu [29]: 2.2; log10cfu [25]: 3.33; log10cfu [26]: 5.04 |
| O=C(Nc1ccc([N+](=O)[O-])cc1Cl)c1cc(Cl)ccc1O [NICLOSAMIDE] |  |  |  |  |  |  |  |  |  |  | MIC [20]: 0.28 µg/mL (≈ 0.856 µM); MIC [21]: 0.32 µg/mL (≈ 0.978 µM) |
| O=[N+]([O-])c1cn2c(n1)OC[C@@H](OCc1ccc(OC(F)(F)F)cc1)C2 [PRETOMANID] |  |  |  |  |  |  |  |  |  |  | MIC [20]: 0.1 µg/mL (≈ 0.278 µM); MIC [21]: 1.4 µg/mL (≈ 3.9 µM) |
